Laboratory results reported in patent US20240117269A1, “NOVEL AROMATIC MONOTHIOKETALS AS FRAGRANCE COMPOUNDS” (SYMRISE AG, priority 2019, published 2024).

Assay: Odor detection threshold (ODT), dynamic olfactometer TO8, expert group, EN 13725
Conditions: in air
Procedure: The odor perception threshold, i.e. the ODT value (“odor detection threshold”), was determined using a dynamic olfactometer designated TO8 and a group of experts in accordance with the EN 13725 standard, in which an odorous air sample is diluted with clean air. The dilution is presented to the test persons (testers) for evaluation. The odor description was carried out by a group of experts comprising 10 members.

Compound	ODT value
CC1OCc2ccccc2S1 (centres unmarked) [2-methyl-4H-3,1-benzoxathiin]	3.6 ng/L
c1ccc2c(c1)COCS2 [4H-3,1-benzoxathiin]	43.6 ng/L
